Experimental findings from ChEMBL document CHEMBL4414592, “Aryl-fluorosulfate-based Lysine Covalent Pan-Inhibitors of Apoptosis Protein (IAP) Antagonists with Cellular Efficacy” (J Med Chem, 2019) are described below.

SMILES strings stand for the structures. Activity calls are given as the source filed them. The calls are words filed in the database; no cut-off is given here.

Data set [1] can be described thus: Stability in mouse plasma assessed as half life at 200 uM at 37 degC incubated up to 120 mins by mass spectrometry. The class given is ADME, cell-free. To be noted: 2 h.
Data set [2] relates to SK-MEL-28. Briefly: Induction of apoptosis in human SK-MEL-28 cells assessed as increase in caspase-3/7 activity at […] incubated for 36 hrs by IncuCyteS3 caspase-3/7 fluorescence-based apoptosis assay. The class given is functional, cell-based.
In data set [3] the test system is A549. The data set can be described thus: Induction of apoptosis in human A549 cells assessed as increase in caspase-3/7 activity at […] incubated for 36 hrs by IncuCyteS3 caspase-3/7 fluorescence-based apoptosis assay. It is filed as functional, cell-based.
The subject of data set [4] is SK-MEL-28. Briefly: Induction of apoptosis in human SK-MEL-28 cells assessed as increase in caspase-3/7 activity at […] incubated for 36 hrs in presence of 1 ng/mL TNFlpha by IncuCyteS3 caspase-3/7 fluorescence-based apoptosis assay. It is filed as functional, cell-based.
In data set [5] the test system is A549. Briefly: Induction of apoptosis in human A549 cells assessed as increase in caspase-3/7 activity at […] incubated for 36 hrs in presence of 1 ng/mL TNFlpha by IncuCyteS3 caspase-3/7 fluorescence-based apoptosis assay. It is filed as functional, cell-based.
Data set [6] relates to SK-MEL-28. Briefly: Cytotoxicity in human SK-MEL-28 cells assessed as reduction in cell viability in presence of 1 ng/mL TNFlpha measured every 3 hrs for 4 days by IncuCyteS3 live-cell analysis system based assay. The class given is functional.
Data set [7] relates to A549. Briefly: Cytotoxicity in human A549 cells assessed as reduction in cell viability in presence of 1 ng/mL TNFlpha measured every 3 hrs for 4 days by IncuCyteS3 live-cell analysis system based assay. It is filed as functional.
The target in data set [8] is Baculoviral IAP repeat-containing protein 2 (Homo sapiens) (UniProt Q13490). Briefly: Binding affinity to N-terminal 6x-His-tagged recombinant human cIAP1-BIR3 (258 to 363 residues) expressed in Escherichia coli assessed as increase in […] domain mass at protein-compound ratio of 1:10 incubated for 6 hrs at 25 degC by LC-MS analysis relative to control.
Data set [9] is described as follows: Stability in aqueous buffer at 100 uM to 2 mM by 1H 1D NMR spectroscopy. It is filed as physicochemical.
A short description of data set [10]: Solubility in pH 7.5 aqueous buffer at 25 degC by 1H 1D NMR spectroscopy. The class given is physicochemical.
The target of data set [11] is T1, Baculoviral IAP repeat-containing protein 3 (Homo sapiens, UniProt Q13489). The data set can be described thus: Inhibition of N-terminal 6x-His-tagged recombinant human cIAP2-BIR3 (244 to 349 residues) expressed in Escherichia coli incubated for 2 hrs without 6 hrs pre-incubation with enzyme by biotinylated AVPI peptide based DELFIA.
Data set [12] addresses T1, Baculoviral IAP repeat-containing protein 3. The data set can be described thus: Inhibition of N-terminal 6x-His-tagged recombinant human cIAP2-BIR3 (244 to 349 residues) expressed in Escherichia coli incubated for 2 hrs after 6 hrs pre-incubation with enzyme by biotinylated AVPI peptide based DELFIA.
In data set [13] the target is T2, E3 ubiquitin-protein ligase XIAP (Homo sapiens, UniProt P98170).
The target of data set [14] is T2, E3 ubiquitin-protein ligase XIAP. This is another data set of the same source.
Data set [15] has the same target. The source holds these as a separate data set.
Data set [16] has the same target. The source holds these as a separate data set.

T2 sequence (P98170 whole entry): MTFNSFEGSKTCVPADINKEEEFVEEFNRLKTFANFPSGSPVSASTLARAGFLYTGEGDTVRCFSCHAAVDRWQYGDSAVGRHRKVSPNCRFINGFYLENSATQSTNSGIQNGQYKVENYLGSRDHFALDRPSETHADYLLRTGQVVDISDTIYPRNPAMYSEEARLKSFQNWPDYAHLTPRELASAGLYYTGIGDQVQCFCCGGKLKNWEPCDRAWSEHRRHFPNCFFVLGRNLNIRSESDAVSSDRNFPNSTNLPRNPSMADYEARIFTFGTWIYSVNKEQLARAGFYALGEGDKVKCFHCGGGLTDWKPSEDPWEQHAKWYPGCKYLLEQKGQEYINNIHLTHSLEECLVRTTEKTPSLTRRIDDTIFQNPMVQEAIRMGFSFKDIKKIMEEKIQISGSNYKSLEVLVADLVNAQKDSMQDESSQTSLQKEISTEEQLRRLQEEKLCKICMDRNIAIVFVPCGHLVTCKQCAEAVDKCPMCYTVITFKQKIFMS
T1 sequence (Q13489 whole entry, the tested form may be a part): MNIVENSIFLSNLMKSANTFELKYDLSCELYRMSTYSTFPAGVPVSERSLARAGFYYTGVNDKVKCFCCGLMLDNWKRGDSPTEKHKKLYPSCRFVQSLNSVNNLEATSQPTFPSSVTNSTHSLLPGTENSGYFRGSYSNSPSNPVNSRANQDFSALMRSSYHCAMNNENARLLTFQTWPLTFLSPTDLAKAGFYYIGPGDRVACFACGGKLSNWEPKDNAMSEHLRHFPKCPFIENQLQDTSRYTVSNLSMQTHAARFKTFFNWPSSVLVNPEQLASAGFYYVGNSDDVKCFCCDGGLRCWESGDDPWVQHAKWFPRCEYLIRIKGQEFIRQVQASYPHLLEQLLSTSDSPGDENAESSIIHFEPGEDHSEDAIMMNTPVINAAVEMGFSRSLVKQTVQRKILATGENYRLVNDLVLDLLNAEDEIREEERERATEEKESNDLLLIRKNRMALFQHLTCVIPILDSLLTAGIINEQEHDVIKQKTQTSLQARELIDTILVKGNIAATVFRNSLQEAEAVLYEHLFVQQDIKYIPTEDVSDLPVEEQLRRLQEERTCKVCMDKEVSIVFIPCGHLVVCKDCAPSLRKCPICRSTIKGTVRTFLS
Baculoviral IAP repeat-containing protein 2 (Homo sapiens), sequence (Q13490 whole entry, the tested form may be a part): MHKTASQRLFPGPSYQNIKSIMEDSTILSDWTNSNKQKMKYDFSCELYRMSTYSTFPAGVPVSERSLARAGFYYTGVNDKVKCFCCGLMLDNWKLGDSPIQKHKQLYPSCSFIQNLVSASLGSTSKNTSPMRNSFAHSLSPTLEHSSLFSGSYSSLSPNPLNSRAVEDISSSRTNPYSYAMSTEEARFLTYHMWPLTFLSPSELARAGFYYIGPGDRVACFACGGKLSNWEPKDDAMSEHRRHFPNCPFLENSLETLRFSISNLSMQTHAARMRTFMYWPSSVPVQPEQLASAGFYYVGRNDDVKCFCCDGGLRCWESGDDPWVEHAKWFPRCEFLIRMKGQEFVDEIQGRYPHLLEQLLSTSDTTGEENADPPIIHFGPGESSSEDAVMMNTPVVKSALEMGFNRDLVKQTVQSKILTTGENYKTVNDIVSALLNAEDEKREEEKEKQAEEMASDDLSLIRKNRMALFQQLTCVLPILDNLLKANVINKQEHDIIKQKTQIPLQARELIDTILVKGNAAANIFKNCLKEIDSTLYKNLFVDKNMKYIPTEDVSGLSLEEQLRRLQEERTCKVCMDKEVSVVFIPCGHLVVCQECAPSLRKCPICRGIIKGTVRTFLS

For `CN[C@@H](C)C(=O)N[C@H](C(=O)N1CCC[C@H]1c1nc(C(=O)c2ccc(F)cc2)cs1)C1CCCCC1` [LCL-161], the Stability entry in [1] is reported as “Stable”. For the same compound, the outcome in the data set on SK-MEL-28 [2] and in the data set on A549 [3] was inactive. The Activity result in the data set with SK-MEL-28 [4], in the data set with A549 [5], with SK-MEL-28 [6] and in the data set with A549 [7] was “Dose-dependent effect” in each case.
With `CN[C@@H](C)C(=O)N[C@@H](Cc1ccc(OS(=O)(=O)F)cc1)C(=O)N1CCC[C@H]1C(=O)N[C@@H]1CCc2c(F)cccc21`, the outcome (in the data set on SK-MEL-28 [2]; in the data set on A549 [3]; in [8]) was inactive. The Activity result in the data set on SK-MEL-28 [4], in the data set with A549 [5], in the data set on SK-MEL-28 [6] and with A549 [7] was “Dose-dependent effect” each time.
With `CN[C@@H](C)C(=O)N[C@H](C(=O)N1CCC[C@H]1C(=O)N[C@@H]1CCc2c(OS(=O)(=O)F)cccc21)C1CCCCC1`, the Stability entry in data set [9] is recorded as “Stable”. Moreover, the solubility result in data set [10] is reported as “<= 2 mM”. Moreover, the result in the data set on SK-MEL-28 [2] and in the data set on A549 [3] was inactive. In addition, the Activity entry with SK-MEL-28 [4], in the data set with A549 [5], with SK-MEL-28 [6] and with A549 [7] was “Dose-dependent effect” throughout.
With `CN[C@@H](C)C(=O)NC(Cc1cc(C)c(C(F)(F)F)cc1F)C(=O)N1CCC[C@H]1C(=O)N[C@@H]1CCc2c(OS(=O)(=O)F)cccc21` (mixture of isomers), in [10], the solubility result is “<= 1 mM”. Also, the Stability result in [1] is on record as “Stable”. The outcome in the data set on SK-MEL-28 [2] and in the data set with A549 [3] was inactive. Besides, the Activity result with SK-MEL-28 [4], with A549 [5], with SK-MEL-28 [6] and in the data set with A549 [7] was “Dose-dependent effect” each time.
Take `CN[C@@H](C)C(=O)N[C@H]1CN(C(=O)CC(C)C)CC[C@H]2CC[C@@H](C(=O)NC(c3ccccc3)c3ccccc3)N2C1=O` [XEVINAPANT]: the concentration for half-maximal inhibition (IC50) (in general, the concentration at which inhibition is half-maximal) in data set [11] worked out at 44 nM; in data set [12], 133 nM; in data set [13], 42 nM; in data set [14], 47.8 nM. In data set [1], the Stability entry was “Stable”. In addition, the result with SK-MEL-28 [2] and with A549 [3] was inactive. In addition, the Activity result in the data set on SK-MEL-28 [4], in the data set with A549 [5], with SK-MEL-28 [6] and with A549 [7] was “Dose-dependent effect” each time. Besides, the results for the ΔTm in data set [15] and in [16] were 17 °C and 19 °C, respectively.
